#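 The compound was tested at five concentrations on cells cultured in 96-well plates, with a 48-hour exposure period. TGI is the concentration that stops growth completely.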
# What was measured:
# Assay in all cases: NCI-60 cell line screen, 48 h
# [1] = test system: IGROV1 ovarian
# [2] = test system: MDA-MB-231 breast
# [3] = test system: KM12 colon
# [4] = test system: DU-145 prostate
# [5] = test system: LOX IMVI melanoma
# [6] = test system: CCRF-CEM leukemia
# [7] = test system: MDA-N
# [8] = test system: T-47D breast
# [9] = test system: A498 renal
# [10] = test system: M14 melanoma
# [11] = test system: UO-31 renal
smiles,measurement,setting,value
O=C(N/N=C(/COc1cccc(Cl)c1)N=Cc1ccncc1)c1ccncc1,TGI,[1],> 100 µM
same,TGI,[2],> 100 µM
same,TGI,[3],> 100 µM
same,TGI,[4],> 100 µM
same,TGI,[5],> 100 µM
same,TGI,[6],> 100 µM
same,TGI,[7],> 100 µM
same,TGI,[8],> 100 µM
same,TGI,[9],> 100 µM
same,TGI,[10],> 100 µM
C1CNCCN2CCCNCCN(C1)CC2,TGI,[1],> 100 µM
same,TGI,[11],> 100 µM
same,TGI,[2],> 100 µM
same,TGI,[3],> 100 µM
same,TGI,[4],> 100 µM
same,TGI,[5],> 100 µM
same,TGI,[6],37.9 µM
same,TGI,[7],> 100 µM
same,TGI,[8],> 100 µM
same,TGI,[9],> 100 µM
same,TGI,[10],> 100 µM
O=C(CSc1nc2ccc(I)cc2c(=O)n1Cc1ccccc1)N/N=C/c1ccccc1,TGI,[1],36.1 µM
same,TGI,[2],43.3 µM
same,TGI,[3],> 100 µM
same,TGI,[4],> 100 µM
same,TGI,[5],> 100 µM
same,TGI,[6],> 100 µM
same,TGI,[7],> 100 µM
same,TGI,[8],79.9 µM
same,TGI,[9],43.7 µM
same,TGI,[10],> 100 µM
COc1cc2c(cc1C)NC(=O)/C2=C/c1c(Cl)[nH]c2cc(C)c(OC)cc12,TGI,[1],16.1 µM
same,TGI,[11],23.4 µM
same,TGI,[2],33.2 µM
same,TGI,[3],15.5 µM
same,TGI,[4],14.8 µM
same,TGI,[5],15.7 µM
same,TGI,[6],5.16 µM
same,TGI,[7],8.93 µM
same,TGI,[8],25.8 µM
same,TGI,[9],23.1 µM
same,TGI,[10],13.7 µM
CCN(CC)CCn1ncc2ccc3c(c(=O)c4cccnc4n3CCN(CC)CC)c21,TGI,[1],4.22 µM
same,TGI,[11],> 8.52 µM
same,TGI,[2],4.07 µM
same,TGI,[3],4.01 µM
same,TGI,[4],> 8.66 µM
same,TGI,[5],> 6.79 µM
same,TGI,[6],1.82 µM
same,TGI,[7],2.15 µM
same,TGI,[8],> 9.48 µM
same,TGI,[9],2.24 µM
same,TGI,[10],2.79 µM
O=c1oc2ncccc2n1Cc1ccc([N+](=O)[O-])cc1,TGI,[1],> 100 µM
same,TGI,[11],> 100 µM
same,TGI,[2],> 100 µM
same,TGI,[3],> 100 µM
same,TGI,[4],> 100 µM
same,TGI,[5],> 100 µM
same,TGI,[6],> 100 µM
same,TGI,[7],> 100 µM
same,TGI,[8],> 100 µM
same,TGI,[9],> 100 µM
same,TGI,[10],> 100 µM
CCOC(=O)c1ccc(N=C2SC(=S)N(c3ccc(F)cc3)C2=Nc2ccc(C(=O)OCC)cc2)cc1,TGI,[1],30.8 µM
same,TGI,[11],28 µM
same,TGI,[2],25.2 µM
same,TGI,[3],> 71.7 µM
same,TGI,[4],> 100 µM
same,TGI,[5],17.9 µM
same,TGI,[6],> 57.6 µM
same,TGI,[7],35.4 µM
same,TGI,[8],22.7 µM
same,TGI,[9],> 100 µM
same,TGI,[10],25.6 µM
C=CCCCCOC1C=CC(OC(C)=O)C(COC(C)=O)O1 (centres undefined),TGI,[1],> 100 µM
same,TGI,[11],> 100 µM
same,TGI,[2],> 100 µM
same,TGI,[3],> 100 µM
same,TGI,[4],> 100 µM
same,TGI,[5],> 100 µM
same,TGI,[6],> 100 µM
same,TGI,[7],> 100 µM
same,TGI,[8],> 100 µM
same,TGI,[9],> 100 µM
same,TGI,[10],> 100 µM
CCN(CC)CCN1c2ccccc2Sc2ccc3ccccc3c21,TGI,[1],24.5 µM
same,TGI,[11],19.1 µM
same,TGI,[2],18.3 µM
same,TGI,[3],19.7 µM
same,TGI,[4],12.3 µM
same,TGI,[5],21.4 µM
same,TGI,[6],15 µM
same,TGI,[7],25.3 µM
same,TGI,[8],19.1 µM
same,TGI,[9],24.7 µM
same,TGI,[10],8.52 µM
O=C(N=Nc1ccc([N+](=O)[O-])cc1)NNc1ccc([N+](=O)[O-])cc1,TGI,[1],26.8 µM
same,TGI,[11],32.6 µM
same,TGI,[2],76.2 µM
same,TGI,[4],18.4 µM
same,TGI,[5],24.4 µM
same,TGI,[6],47.1 µM
same,TGI,[7],32.3 µM
same,TGI,[8],25.2 µM
same,TGI,[9],26.6 µM
same,TGI,[10],31 µM
CCN(CC)CCNc1ccc([N+](=O)[O-])c2nc3ccccc3c(N)c12,TGI,[1],> 10 µM
same,TGI,[11],5.94 µM
same,TGI,[2],2.4 µM
same,TGI,[3],1.41 µM
same,TGI,[4],> 10 µM
same,TGI,[5],1.61 µM
same,TGI,[6],2.08 µM
same,TGI,[7],2.14 µM
same,TGI,[8],> 10 µM
same,TGI,[9],2.91 µM
same,TGI,[10],1.67 µM
OC(c1cc(C(O)(C(F)(F)F)C(F)(F)F)ncn1)(C(F)(F)F)C(F)(F)F,TGI,[1],> 10 µM
same,TGI,[11],> 10 µM
same,TGI,[2],> 10 µM
same,TGI,[3],> 10 µM
same,TGI,[4],> 10 µM
same,TGI,[5],> 10 µM
same,TGI,[6],> 10 µM
same,TGI,[7],> 10 µM
same,TGI,[8],> 10 µM
same,TGI,[9],> 10 µM
same,TGI,[10],> 10 µM
COC(=O)N1CC[C@@H]2CCC=C(c3cccc4c3OCO4)[C@@H]21,TGI,[1],> 100 µM
same,TGI,[11],> 100 µM
same,TGI,[2],> 100 µM
same,TGI,[3],> 100 µM
same,TGI,[4],> 100 µM
same,TGI,[5],> 100 µM
same,TGI,[6],> 100 µM
same,TGI,[7],> 100 µM
same,TGI,[8],> 100 µM
same,TGI,[9],> 100 µM
same,TGI,[10],> 100 µM
CCCCc1ccc(Nc2nc3c(ncn3C3OC(COC(C)=O)C(OC(C)=O)C3OC(C)=O)c(=O)[nH]2)cc1 (centres undefined),TGI,[1],37.7 µM
same,TGI,[11],> 100 µM
same,TGI,[2],31.1 µM
same,TGI,[3],35.2 µM
same,TGI,[4],90.6 µM
same,TGI,[5],36 µM
same,TGI,[6],35.1 µM
same,TGI,[7],35.4 µM
same,TGI,[8],30 µM
same,TGI,[9],> 100 µM
same,TGI,[10],41.2 µM
N#CS/C(C(Cl)=C(Cl)Cl)=C(/Cl)[N+](=O)[O-],TGI,[1],5.63 µM
same,TGI,[11],3.1 µM
same,TGI,[2],11.9 µM
same,TGI,[3],32.4 µM
same,TGI,[4],27.8 µM
same,TGI,[5],2.37 µM
same,TGI,[6],1.18 µM
same,TGI,[7],3.18 µM
same,TGI,[8],4.86 µM
same,TGI,[9],38.2 µM
same,TGI,[10],2.79 µM
COC(=O)C12CCC(C(=O)OC)(Cc3c(c4ccccc4n3S(=O)(=O)c3ccccc3)C1)C2=O (centres undefined),TGI,[1],> 100 µM
same,TGI,[11],> 100 µM
same,TGI,[2],> 100 µM
same,TGI,[3],> 100 µM
same,TGI,[4],> 100 µM
same,TGI,[5],> 100 µM
same,TGI,[6],> 100 µM
same,TGI,[7],> 100 µM
same,TGI,[8],> 100 µM
same,TGI,[9],> 100 µM
same,TGI,[10],> 100 µM
CCOC(=O)C(SCCO)C(C(=O)OCC)n1ccc(N)nc1=O (centres undefined),TGI,[1],> 100 µM
same,TGI,[11],> 100 µM
same,TGI,[2],> 100 µM
same,TGI,[3],> 100 µM
same,TGI,[4],> 100 µM
same,TGI,[5],> 100 µM
same,TGI,[6],> 100 µM
same,TGI,[7],> 100 µM
same,TGI,[8],> 100 µM
same,TGI,[9],> 100 µM
same,TGI,[10],> 100 µM
CC(=O)OCC1C(C(C)OC(C)=O)CCC2C1CCC1(C)C(OC(C)=O)CCC21 (centres undefined),TGI,[1],42.1 µM
same,TGI,[11],> 100 µM
same,TGI,[2],30.7 µM
same,TGI,[3],31.3 µM
same,TGI,[4],> 100 µM
same,TGI,[5],27.9 µM
same,TGI,[6],42.6 µM
same,TGI,[7],37 µM
same,TGI,[8],65.7 µM
same,TGI,[9],41.4 µM
same,TGI,[10],31.9 µM
CCCCC1Cc2cc(O)ccc2-c2n1c1cc(O)ccc1[n+]2C (centres undefined) (tested in a mixture with another compound),TGI,[1],> 83.8 µM
same,TGI,[11],> 100 µM
same,TGI,[2],> 100 µM
same,TGI,[3],> 100 µM
same,TGI,[4],> 100 µM
same,TGI,[5],> 100 µM
same,TGI,[6],> 100 µM
same,TGI,[7],> 100 µM
same,TGI,[8],> 100 µM
same,TGI,[9],> 100 µM
same,TGI,[10],> 100 µM
CC1=C(C)C(=O)OC(C(C)(O)C2(O)CCC3(O)C4CC(Cl)C5(O)C(O)C=CC(=O)C5(C)C4CCC32C)C1 (centres undefined),TGI,[1],> 100 µM
same,TGI,[11],> 100 µM
same,TGI,[2],> 100 µM
same,TGI,[3],> 100 µM
same,TGI,[4],> 100 µM
same,TGI,[5],46.4 µM
same,TGI,[6],53.4 µM
same,TGI,[7],> 100 µM
same,TGI,[8],> 100 µM
same,TGI,[9],> 100 µM
same,TGI,[10],> 100 µM
CCCCCCCCCc1cc(O)c(O)cc1CCCCCCCCC,TGI,[1],> 10 µM
same,TGI,[11],> 10 µM
same,TGI,[2],> 10 µM
same,TGI,[3],> 10 µM
same,TGI,[4],> 10 µM
same,TGI,[5],> 10 µM
same,TGI,[6],> 10 µM
same,TGI,[7],> 10 µM
same,TGI,[8],> 10 µM
same,TGI,[9],> 10 µM
same,TGI,[10],> 10 µM
COc1cc(Cn2c3c(c4c(CN(C)C)c(O)ccc42)C(=O)c2ccccc2C3=O)cc(OC)c1,TGI,[11],27.7 µM
same,TGI,[2],40.7 µM
same,TGI,[3],> 100 µM
same,TGI,[4],> 100 µM
same,TGI,[5],40.6 µM
same,TGI,[6],52.4 µM
same,TGI,[7],31.6 µM
same,TGI,[8],> 100 µM
same,TGI,[9],22.4 µM
same,TGI,[10],32.6 µM
C/C(Cl)=N\OC(=O)Nc1ccc([N+](=O)[O-])cc1,TGI,[1],38.5 µM
same,TGI,[11],11.4 µM
same,TGI,[2],37.1 µM
same,TGI,[3],36.2 µM
same,TGI,[4],31.8 µM
same,TGI,[5],9.93 µM
same,TGI,[6],> 100 µM
same,TGI,[7],25.1 µM
same,TGI,[8],36.8 µM
same,TGI,[9],30.5 µM
same,TGI,[10],26.1 µM
C/C(CC(O)(C(F)(F)F)C(F)(F)F)=N\N,TGI,[1],> 10 µM
same,TGI,[2],> 10 µM
same,TGI,[3],> 10 µM
same,TGI,[4],> 10 µM
same,TGI,[5],> 10 µM
same,TGI,[6],> 10 µM
same,TGI,[7],> 10 µM
same,TGI,[8],> 10 µM
same,TGI,[9],> 10 µM
same,TGI,[10],> 10 µM
